Experimental data: patent US7709511B2, “Benzothiazolone derivatives” (AstraZeneca AB, priority 2005, dated 2010)
Structures can show the parent of a compound that is named as a salt.

Target: T1, Adrenergic β2 (Homo sapiens, UniProt P07550)
T1 construct: endogenous in cells; host or cells: H292 cells
Experiment: Alternative adrenergic β2 mediated cAMP production in H292 cells (AlphaScreen cAMP detection)
Type: cell-based
Settings: for EC50: cAMP, test compounds incubated 60 minutes at room temperature, 300 μM rolipram, read-out: β2 pEC50 (converted); for β2 Int Act: fraction relative to the maximum activity determined for formoterol, 60 minutes incubation
Experimental: Alternative Adrenergic β2 Mediated cAMP Production Cell Preparation
H292 cells were grown in 225 cm2 flasks incubator at 37° C., 5% CO2 in RPMI medium containing, 10% (v/v) FBS (foetal bovine serum) and 2 mM L-glutamine.
Adherent H292 cells were removed from tissue culture flasks by treatment with Accutase™ cell detachment solution for 15 minutes. Flasks were incubated for 15 minutes in a humidified incubator at 37° C., 5% CO2. Detached cells were re-suspended in RPMI media (containing 10% (v/v) FBS and 2 mM L-glutamine) at 0.05×10^6 cells per mL. 5000 cells in 100 μL were added to each well of a tissue-culture-treated 96-well plate and the cells incubated overnight in a humidified incubator at 37° C., 5% CO2. The culture media was removed and cells were washed twice with 100 μL assay buffer and replaced with 50 μL assay buffer (HBSS solution containing 10 mM HEPES pH7.4 and 5 mM glucose). Cells were rested at room temperature for 20 minutes after which time 25 μL of rolipram (1.2 mM made up in assay buffer containing 2.4% (v/v) dimethylsulphoxide) was added. Cells were incubated with rolipram for 10 minutes after which time test compounds were added and the cells were incubated for 60 minutes at room temperature. The final rolipram concentration in the assay was 300 μM and final vehicle concentration was 1.6% (v/v) dimethylsulphoxide. The reaction was stopped by removing supernatants, washing once with 100 μL assay buffer and replacing with 50 μL lysis buffer. The cell monolayer was frozen at −80° C. for 30 minutes (or overnight).
AlphaScreen™ cAMP Detection
The concentration of cAMP (cyclic adenosine monophosphate) in the cell lysate was determined using AlphaScreen™ methodology. The frozen cell plate was thawed for 20 minutes on a plate shaker then 10 μL of the cell lysate was transferred to a 96-well white plate. 40 μL of mixed AlphaScreen™ detection beads pre-incubated with biotinylated cAMP, was added to each well and the plate incubated at room temperature for 10 hours in the dark. The AlphaScreen™ signal was measured using an EnVision spectrophotometer (Perkin-Elmer Inc.) with the recommended manufacturer's settings. cAMP concentrations were determined by reference to a calibration curve determined in the same experiment using standard cAMP concentrations. Concentration response curves for agonists were constructed and data was fitted to a four parameter logistic equation to determine both the pEC50 and Intrinsic Activity. Intrinsic Activity was expressed as a fraction relative to the maximum activity determined for formoterol in each experiment.

T1 sequence (P07550 whole entry): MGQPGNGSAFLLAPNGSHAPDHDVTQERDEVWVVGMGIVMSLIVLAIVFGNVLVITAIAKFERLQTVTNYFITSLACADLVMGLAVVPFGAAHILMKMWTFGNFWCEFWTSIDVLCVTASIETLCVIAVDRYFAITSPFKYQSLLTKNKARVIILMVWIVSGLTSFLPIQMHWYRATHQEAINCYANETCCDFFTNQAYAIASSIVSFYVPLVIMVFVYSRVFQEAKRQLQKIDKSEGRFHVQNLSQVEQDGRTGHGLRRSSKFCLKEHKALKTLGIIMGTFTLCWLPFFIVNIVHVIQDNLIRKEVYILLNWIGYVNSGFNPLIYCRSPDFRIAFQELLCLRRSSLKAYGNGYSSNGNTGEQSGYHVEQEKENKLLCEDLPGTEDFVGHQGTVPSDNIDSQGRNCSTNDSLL

SMILES	EC50	β2 Int Act
CCN(CC)CCN(CCNCCc1ccc(O)c2[nH]c(=O)sc12)C(=O)CCOCCc1cccc(C)c1 [Example 28, N-[2-(Diethylamino)ethyl]-N-(2-{[2-(4-hydroxy-2-oxo-2,3-dihydro-1,3-benzothiazol-7-yl)ethyl]amino}ethyl)-3-[2-(3-methylphenyl)ethoxy]propanamide]	3.16 nM	0.6
CCN(CC)CCN(CCNCCc1ccc(O)c2[nH]c(=O)sc12)C(=O)CCOCCc1ccc(Cl)cc1 [Example 26, 3-[2-(4-Chlorophenyl)ethoxy]-N-(2-diethylaminoethyl)-N-{2-[2-(4-hydroxy-2-oxo-2,3-dihydro-1,3-benzothiazol-7-yl)ethylamino]ethyl}propanamide dihydrobromide]	15.8 nM	0.6
